Test results reported in ChEMBL document CHEMBL4507268 (2021).

Assays:
[1] = target: T1, Serine/threonine-protein kinase 17B (Homo sapiens) (UniProt O94768); settings: Compound concentration 1.0 uM
T1 sequence (whole entry): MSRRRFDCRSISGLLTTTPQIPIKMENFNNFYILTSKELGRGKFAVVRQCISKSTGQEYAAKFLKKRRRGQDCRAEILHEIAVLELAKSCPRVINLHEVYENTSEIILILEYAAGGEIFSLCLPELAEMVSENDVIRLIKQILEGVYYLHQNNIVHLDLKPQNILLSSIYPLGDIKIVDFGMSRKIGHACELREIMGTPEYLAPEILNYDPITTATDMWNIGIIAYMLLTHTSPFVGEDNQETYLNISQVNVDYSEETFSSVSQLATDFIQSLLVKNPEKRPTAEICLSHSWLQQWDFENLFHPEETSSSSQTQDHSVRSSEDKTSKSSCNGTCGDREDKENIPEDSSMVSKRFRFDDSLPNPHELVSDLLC

[2] = target: Fibroblast growth factor receptor 2 (Homo sapiens) (UniProt P21802); settings: Compound concentration 1.0 uM
Fibroblast growth factor receptor 2 (Homo sapiens), sequence (P21802 22-821 limits assumed): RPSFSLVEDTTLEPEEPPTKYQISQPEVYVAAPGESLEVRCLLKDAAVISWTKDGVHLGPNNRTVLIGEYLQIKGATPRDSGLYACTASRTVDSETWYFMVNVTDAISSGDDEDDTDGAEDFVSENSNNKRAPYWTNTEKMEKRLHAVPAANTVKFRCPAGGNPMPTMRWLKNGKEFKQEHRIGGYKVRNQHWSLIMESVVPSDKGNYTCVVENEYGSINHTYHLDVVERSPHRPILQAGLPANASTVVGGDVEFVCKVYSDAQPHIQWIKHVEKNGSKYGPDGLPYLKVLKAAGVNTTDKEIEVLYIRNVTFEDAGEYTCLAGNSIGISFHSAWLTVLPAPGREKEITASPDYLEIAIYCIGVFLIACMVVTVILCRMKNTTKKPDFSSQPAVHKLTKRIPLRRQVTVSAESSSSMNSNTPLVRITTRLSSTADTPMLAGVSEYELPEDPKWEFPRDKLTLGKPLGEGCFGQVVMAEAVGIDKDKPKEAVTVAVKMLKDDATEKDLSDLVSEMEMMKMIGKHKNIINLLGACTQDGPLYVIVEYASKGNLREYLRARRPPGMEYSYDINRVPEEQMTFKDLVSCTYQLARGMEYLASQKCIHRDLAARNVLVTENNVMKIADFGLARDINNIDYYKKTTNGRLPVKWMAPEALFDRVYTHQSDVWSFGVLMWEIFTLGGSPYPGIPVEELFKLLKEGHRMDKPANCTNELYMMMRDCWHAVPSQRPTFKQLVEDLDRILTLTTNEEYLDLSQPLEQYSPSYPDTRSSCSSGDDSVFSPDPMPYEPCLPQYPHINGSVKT

[3] = target: Serine/threonine-protein kinase Chk2 (Homo sapiens) (UniProt O96017); settings: Compound concentration 1.0 uM
Serine/threonine-protein kinase Chk2 (Homo sapiens), sequence (O96017 whole entry): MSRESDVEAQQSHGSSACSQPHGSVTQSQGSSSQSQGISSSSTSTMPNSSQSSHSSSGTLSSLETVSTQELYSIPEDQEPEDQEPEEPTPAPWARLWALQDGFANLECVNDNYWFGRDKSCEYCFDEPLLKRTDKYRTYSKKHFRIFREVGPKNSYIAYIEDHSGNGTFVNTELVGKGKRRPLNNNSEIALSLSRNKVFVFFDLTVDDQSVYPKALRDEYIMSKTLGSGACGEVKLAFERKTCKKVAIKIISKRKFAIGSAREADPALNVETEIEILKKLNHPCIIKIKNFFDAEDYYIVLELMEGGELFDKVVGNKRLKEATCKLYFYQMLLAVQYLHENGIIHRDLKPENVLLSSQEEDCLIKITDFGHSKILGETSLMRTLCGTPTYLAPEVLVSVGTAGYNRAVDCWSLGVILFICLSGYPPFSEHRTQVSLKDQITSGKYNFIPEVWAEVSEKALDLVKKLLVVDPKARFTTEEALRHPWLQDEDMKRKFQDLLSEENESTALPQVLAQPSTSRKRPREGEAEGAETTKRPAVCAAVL

[4] = target: Dual specificity mitogen-activated protein kinase kinase 1 (Homo sapiens) (UniProt Q02750); settings: Compound concentration 1.0 uM
Dual specificity mitogen-activated protein kinase kinase 1 (Homo sapiens), sequence (Q02750 whole entry): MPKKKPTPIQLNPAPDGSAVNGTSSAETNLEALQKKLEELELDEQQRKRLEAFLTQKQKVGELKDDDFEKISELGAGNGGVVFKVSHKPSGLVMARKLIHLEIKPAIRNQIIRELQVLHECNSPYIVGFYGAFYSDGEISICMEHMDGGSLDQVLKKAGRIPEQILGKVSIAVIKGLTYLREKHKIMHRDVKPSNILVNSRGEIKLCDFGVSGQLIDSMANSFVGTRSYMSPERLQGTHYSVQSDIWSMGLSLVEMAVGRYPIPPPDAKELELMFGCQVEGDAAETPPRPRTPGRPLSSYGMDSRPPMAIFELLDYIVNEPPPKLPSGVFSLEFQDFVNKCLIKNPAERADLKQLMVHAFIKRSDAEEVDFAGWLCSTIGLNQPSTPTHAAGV

[5] = target: Aurora kinase B (Homo sapiens) (UniProt Q96GD4); settings: Compound concentration 1.0 uM
Aurora kinase B (Homo sapiens), sequence (Q96GD4 whole entry): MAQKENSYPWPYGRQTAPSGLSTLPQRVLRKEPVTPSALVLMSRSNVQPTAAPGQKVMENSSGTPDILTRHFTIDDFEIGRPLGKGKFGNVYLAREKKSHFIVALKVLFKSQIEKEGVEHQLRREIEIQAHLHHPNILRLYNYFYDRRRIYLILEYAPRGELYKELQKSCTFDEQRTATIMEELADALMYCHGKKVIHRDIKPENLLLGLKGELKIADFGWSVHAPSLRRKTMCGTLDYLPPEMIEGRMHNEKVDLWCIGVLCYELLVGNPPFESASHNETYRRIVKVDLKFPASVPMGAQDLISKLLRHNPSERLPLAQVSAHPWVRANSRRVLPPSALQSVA

[6] = target: Mitogen-activated protein kinase kinase kinase 11 (Homo sapiens) (UniProt Q16584); settings: Compound concentration 1.0 uM
[7] = target: Myosin light chain kinase 2, skeletal/cardiac muscle (Homo sapiens) (UniProt Q9H1R3); settings: Compound concentration 1.0 uM
Myosin light chain kinase 2, skeletal/cardiac muscle (Homo sapiens), sequence (Q9H1R3 whole entry): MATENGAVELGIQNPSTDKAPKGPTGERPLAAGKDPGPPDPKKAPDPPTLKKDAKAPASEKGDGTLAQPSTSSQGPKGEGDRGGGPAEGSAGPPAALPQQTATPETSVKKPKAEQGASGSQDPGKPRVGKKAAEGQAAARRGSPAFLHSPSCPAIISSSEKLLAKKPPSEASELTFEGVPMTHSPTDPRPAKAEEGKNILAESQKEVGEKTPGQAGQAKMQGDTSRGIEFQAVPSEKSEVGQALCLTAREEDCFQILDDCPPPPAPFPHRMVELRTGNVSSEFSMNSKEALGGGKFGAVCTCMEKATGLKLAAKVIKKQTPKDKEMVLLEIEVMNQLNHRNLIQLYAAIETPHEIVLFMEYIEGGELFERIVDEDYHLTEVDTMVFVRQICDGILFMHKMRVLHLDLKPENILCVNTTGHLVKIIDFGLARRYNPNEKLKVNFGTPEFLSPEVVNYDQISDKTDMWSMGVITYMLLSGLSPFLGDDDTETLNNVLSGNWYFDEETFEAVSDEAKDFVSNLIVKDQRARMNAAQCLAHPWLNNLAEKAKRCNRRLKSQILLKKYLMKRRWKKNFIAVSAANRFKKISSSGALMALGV

[8] = target: Protein kinase C beta type (Homo sapiens) (UniProt P05771); settings: Compound concentration 1.0 uM
Protein kinase C beta type (Homo sapiens), sequence (P05771 2-671 limits assumed): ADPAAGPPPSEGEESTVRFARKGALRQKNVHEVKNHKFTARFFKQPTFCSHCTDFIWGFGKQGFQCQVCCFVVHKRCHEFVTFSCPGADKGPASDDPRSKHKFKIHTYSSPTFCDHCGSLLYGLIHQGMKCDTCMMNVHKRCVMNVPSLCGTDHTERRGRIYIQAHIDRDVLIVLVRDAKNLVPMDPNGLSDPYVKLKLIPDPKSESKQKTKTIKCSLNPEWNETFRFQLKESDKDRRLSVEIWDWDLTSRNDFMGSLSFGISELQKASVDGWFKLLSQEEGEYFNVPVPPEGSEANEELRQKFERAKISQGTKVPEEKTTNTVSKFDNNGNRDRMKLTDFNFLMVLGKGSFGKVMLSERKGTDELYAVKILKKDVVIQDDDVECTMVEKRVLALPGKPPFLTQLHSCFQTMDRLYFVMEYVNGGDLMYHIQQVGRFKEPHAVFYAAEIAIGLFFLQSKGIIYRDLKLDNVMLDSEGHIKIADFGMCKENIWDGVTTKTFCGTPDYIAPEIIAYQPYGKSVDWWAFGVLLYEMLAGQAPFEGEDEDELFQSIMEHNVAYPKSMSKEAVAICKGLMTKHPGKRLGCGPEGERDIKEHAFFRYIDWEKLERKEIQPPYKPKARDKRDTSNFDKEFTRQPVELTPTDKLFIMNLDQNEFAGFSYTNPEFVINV

[9] = target: Tyrosine-protein kinase Fer (Homo sapiens) (UniProt P16591); settings: Compound concentration 1.0 uM
[10] = target: Dual specificity protein kinase CLK1 (Homo sapiens) (UniProt P49759); settings: Compound concentration 1.0 uM
Dual specificity protein kinase CLK1 (Homo sapiens), sequence (P49759 whole entry, looked up): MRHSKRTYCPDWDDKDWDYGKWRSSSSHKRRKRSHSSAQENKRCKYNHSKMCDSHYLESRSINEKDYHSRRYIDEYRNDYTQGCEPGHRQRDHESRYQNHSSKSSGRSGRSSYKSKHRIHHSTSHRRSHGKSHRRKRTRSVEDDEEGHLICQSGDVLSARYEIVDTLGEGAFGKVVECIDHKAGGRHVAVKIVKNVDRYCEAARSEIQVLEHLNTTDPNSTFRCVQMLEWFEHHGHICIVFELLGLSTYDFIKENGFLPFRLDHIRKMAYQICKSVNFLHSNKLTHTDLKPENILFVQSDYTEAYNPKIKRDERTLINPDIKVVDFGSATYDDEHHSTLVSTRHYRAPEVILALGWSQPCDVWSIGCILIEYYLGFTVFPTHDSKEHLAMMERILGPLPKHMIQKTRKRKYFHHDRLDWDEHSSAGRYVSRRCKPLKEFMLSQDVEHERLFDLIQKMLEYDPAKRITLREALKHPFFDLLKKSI

[11] = target: Alpha-2B adrenergic receptor (Homo sapiens) (UniProt P18089); settings: Compound concentration 10.0 uM
Alpha-2B adrenergic receptor (Homo sapiens), sequence (P18089 whole entry): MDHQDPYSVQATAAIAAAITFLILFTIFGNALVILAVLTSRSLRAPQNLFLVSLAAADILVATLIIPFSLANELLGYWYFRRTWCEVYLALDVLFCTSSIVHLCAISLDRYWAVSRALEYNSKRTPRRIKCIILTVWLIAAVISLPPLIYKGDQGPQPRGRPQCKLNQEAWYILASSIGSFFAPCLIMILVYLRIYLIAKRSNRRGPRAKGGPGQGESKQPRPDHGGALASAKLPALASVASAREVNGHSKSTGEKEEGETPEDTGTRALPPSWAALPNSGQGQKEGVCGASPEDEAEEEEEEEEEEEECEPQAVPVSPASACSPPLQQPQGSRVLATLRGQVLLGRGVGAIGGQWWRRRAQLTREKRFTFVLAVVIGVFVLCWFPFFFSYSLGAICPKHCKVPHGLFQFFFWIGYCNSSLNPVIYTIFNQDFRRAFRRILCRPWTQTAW

[12] = target: T2, Bone morphogenetic protein receptor type-2 (Homo sapiens) (UniProt Q13873); settings: Compound concentration 1.0 uM
T2 sequence (whole entry): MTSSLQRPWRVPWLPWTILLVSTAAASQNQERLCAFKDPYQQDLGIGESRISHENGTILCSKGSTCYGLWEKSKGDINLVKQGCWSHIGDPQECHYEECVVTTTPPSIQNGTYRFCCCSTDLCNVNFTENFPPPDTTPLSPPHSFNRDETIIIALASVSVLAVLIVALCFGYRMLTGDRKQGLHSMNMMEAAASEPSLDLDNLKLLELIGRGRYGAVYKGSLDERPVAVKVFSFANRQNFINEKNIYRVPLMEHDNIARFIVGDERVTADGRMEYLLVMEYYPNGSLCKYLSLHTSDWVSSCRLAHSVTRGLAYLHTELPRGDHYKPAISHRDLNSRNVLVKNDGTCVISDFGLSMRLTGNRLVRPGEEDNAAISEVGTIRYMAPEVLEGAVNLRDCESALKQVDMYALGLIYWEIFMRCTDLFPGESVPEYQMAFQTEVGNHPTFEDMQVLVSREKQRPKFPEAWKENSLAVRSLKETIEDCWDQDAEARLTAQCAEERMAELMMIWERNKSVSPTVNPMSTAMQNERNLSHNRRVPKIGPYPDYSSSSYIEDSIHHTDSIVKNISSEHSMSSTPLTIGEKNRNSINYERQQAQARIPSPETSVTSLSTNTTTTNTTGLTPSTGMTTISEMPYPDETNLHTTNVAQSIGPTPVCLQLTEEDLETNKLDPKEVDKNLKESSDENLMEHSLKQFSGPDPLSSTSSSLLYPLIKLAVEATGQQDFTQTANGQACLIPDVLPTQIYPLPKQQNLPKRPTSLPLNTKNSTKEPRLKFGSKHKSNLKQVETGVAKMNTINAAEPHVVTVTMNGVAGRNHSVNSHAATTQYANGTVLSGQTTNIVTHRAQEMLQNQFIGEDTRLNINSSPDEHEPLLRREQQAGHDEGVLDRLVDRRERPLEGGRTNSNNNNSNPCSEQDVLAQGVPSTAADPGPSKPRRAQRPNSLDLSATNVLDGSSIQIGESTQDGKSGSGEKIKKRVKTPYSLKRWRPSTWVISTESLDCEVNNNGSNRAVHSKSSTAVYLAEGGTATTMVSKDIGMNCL

[13] = target: Homeodomain-interacting protein kinase 1 (Homo sapiens) (UniProt Q86Z02); settings: Compound concentration 1.0 uM
[14] = target: T3, Serine/threonine-protein kinase ULK3 (Homo sapiens) (UniProt Q6PHR2); settings: Compound concentration 1.0 uM
T3 sequence (whole entry): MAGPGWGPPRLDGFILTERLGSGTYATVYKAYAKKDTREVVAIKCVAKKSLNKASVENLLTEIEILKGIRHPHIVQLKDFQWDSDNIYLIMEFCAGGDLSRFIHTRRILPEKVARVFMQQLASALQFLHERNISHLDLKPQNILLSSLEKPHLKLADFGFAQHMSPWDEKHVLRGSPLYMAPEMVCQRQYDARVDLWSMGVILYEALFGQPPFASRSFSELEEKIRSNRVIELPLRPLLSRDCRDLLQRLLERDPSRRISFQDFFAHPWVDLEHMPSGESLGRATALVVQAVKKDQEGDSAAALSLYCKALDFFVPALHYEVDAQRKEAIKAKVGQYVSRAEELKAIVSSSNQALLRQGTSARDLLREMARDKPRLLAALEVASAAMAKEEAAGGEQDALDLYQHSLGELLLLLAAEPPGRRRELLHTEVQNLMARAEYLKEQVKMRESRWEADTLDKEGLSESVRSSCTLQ

CN1CCN(c2cnc3c(C4CCN(C(=O)c5ccc(OC(F)(F)F)cc5N)CC4)ncnc3c2)CC1 [BAY-885]
inactive: % residual kinase activity [1] 117% | % residual kinase activity [2] 107% | % residual kinase activity [3] 92% | % residual kinase activity [4] 115% | % residual kinase activity [5] 94% | % residual kinase activity [6] 112% | % residual kinase activity [7] 93% | % residual kinase activity [8] 112% | % residual kinase activity [9] 38% | % residual kinase activity [10] 105% | inhibition [11] -8.47% | % residual kinase activity [12] 100% | % residual kinase activity [13] 116% | % residual kinase activity [14] 98%
